Assay: xn = mol fraction of the nth substance listed
Conditions: 100 kPa, Liquid; for viscosity: Capillary tube (Ostwald / Ubbelohde) method; for mass density: Vibrating tube method

CCCCn1cc[n+](C)c1C.O=S(=O)([N-]S(=O)(=O)C(F)(F)F)C(F)(F)F + O=C1CCCO1
Conditions	mass density [kg/m3]	viscosity [mPa·s]
293.15 K, x1 = 0.0532	1183	2.62
293.15 K, x1 = 0.1004	1219.51	3.65
293.15 K, x1 = 0.1504	1250.59	4.95
293.15 K, x1 = 0.1999	1275.61	6.54
293.15 K, x1 = 0.2988	1314.04	10.79
293.15 K, x1 = 0.4006	1342.77	17.78
293.15 K, x1 = 0.5005	1364.2	26.66
293.15 K, x1 = 0.5999	1381	40.38
293.15 K, x1 = 0.7	1394.71	56.57
293.15 K, x1 = 0.8013	1406.18	79.17
293.15 K, x1 = 0.8986	1415.43	102.22
293.15 K, x1 = 1	1423.72	133.59
298.15 K, x1 = 0.0532	1178.1	2.43
298.15 K, x1 = 0.1004	1214.61	3.29
298.15 K, x1 = 0.1504	1245.77	4.48
298.15 K, x1 = 0.1999	1270.81	5.77
298.15 K, x1 = 0.2988	1309.26	9.32
298.15 K, x1 = 0.4006	1338.05	14.92
298.15 K, x1 = 0.5005	1359.5	22.02
298.15 K, x1 = 0.5999	1376.34	32.56
298.15 K, x1 = 0.7	1390.08	44.79
298.15 K, x1 = 0.8013	1401.56	60.93
298.15 K, x1 = 0.8986	1410.81	78.62
298.15 K, x1 = 1	1419.13	101.34
303.15 K, x1 = 0.0532	1173.22	2.23
303.15 K, x1 = 0.1004	1209.75	2.98
303.15 K, x1 = 0.1504	1240.94	4.01
303.15 K, x1 = 0.1999	1266	5.11
303.15 K, x1 = 0.2988	1304.49	8.06
303.15 K, x1 = 0.4006	1333.32	12.72
303.15 K, x1 = 0.5005	1354.8	18.27
303.15 K, x1 = 0.5999	1371.67	26.34
303.15 K, x1 = 0.7	1385.42	35.8
303.15 K, x1 = 0.8013	1396.93	48.32
303.15 K, x1 = 0.8986	1406.19	61.12
303.15 K, x1 = 1	1414.52	77.86
308.15 K, x1 = 0.0532	1168.35	2.05
308.15 K, x1 = 0.1004	1204.91	2.72
308.15 K, x1 = 0.1504	1236.11	3.65
308.15 K, x1 = 0.1999	1261.18	4.57
308.15 K, x1 = 0.2988	1299.72	7.1
308.15 K, x1 = 0.4006	1328.58	10.83
308.15 K, x1 = 0.5005	1350.1	15.54
308.15 K, x1 = 0.5999	1366.99	21.9
308.15 K, x1 = 0.7	1380.78	29.22
308.15 K, x1 = 0.8013	1392.3	39.19
308.15 K, x1 = 0.8986	1401.58	48.88
308.15 K, x1 = 1	1409.91	61.73
313.15 K, x1 = 0.0532	1163.43	1.9
313.15 K, x1 = 0.1004	1200.07	2.49
313.15 K, x1 = 0.1504	1231.24	3.28
313.15 K, x1 = 0.1999	1256.38	4.11
313.15 K, x1 = 0.2988	1294.96	6.29
313.15 K, x1 = 0.4006	1323.85	9.4
313.15 K, x1 = 0.5005	1345.39	13.32
313.15 K, x1 = 0.5999	1362.33	18.32
313.15 K, x1 = 0.7	1376.14	24.44
313.15 K, x1 = 0.8013	1387.67	32.14
313.15 K, x1 = 0.8986	1396.98	39.87
313.15 K, x1 = 1	1405.31	49.77
318.15 K, x1 = 0.0532	1158.58	1.74
318.15 K, x1 = 0.1004	1195.18	2.3
318.15 K, x1 = 0.1504	1226.41	3.06
318.15 K, x1 = 0.1999	1251.54	3.74
318.15 K, x1 = 0.2988	1290.17	5.63
318.15 K, x1 = 0.4006	1319.11	8.18
318.15 K, x1 = 0.5005	1340.7	11.52
318.15 K, x1 = 0.5999	1357.64	15.42
318.15 K, x1 = 0.7	1371.48	20.51
318.15 K, x1 = 0.8013	1383.04	26.78
318.15 K, x1 = 0.8986	1392.36	32.9
318.15 K, x1 = 1	1400.7	40.7
323.15 K, x1 = 0.0532	1153.71	1.63
323.15 K, x1 = 0.1004	1190.32	2.12
323.15 K, x1 = 0.1504	1221.58	2.72
323.15 K, x1 = 0.1999	1246.73	3.39
323.15 K, x1 = 0.2988	1285.42	5.03
323.15 K, x1 = 0.4006	1314.4	7.22
323.15 K, x1 = 0.5005	1336.03	10.06
323.15 K, x1 = 0.5999	1352.99	13.17
323.15 K, x1 = 0.7	1366.86	17.44
323.15 K, x1 = 0.8013	1378.44	22.39
323.15 K, x1 = 0.8986	1387.78	27.46
323.15 K, x1 = 1	1396.13	33.69

CCC[n+]1ccn(C)c1C.O=S(=O)([N-]S(=O)(=O)C(F)(F)F)C(F)(F)F + O=C1CCCO1
Conditions	mass density [kg/m3]	viscosity [mPa·s]
293.15 K, x1 = 0.0505	1184.15	2.47
293.15 K, x1 = 0.1001	1226.3	3.4
293.15 K, x1 = 0.1492	1259.98	4.72
293.15 K, x1 = 0.1998	1288.55	6.2
293.15 K, x1 = 0.3008	1332.65	9.95
293.15 K, x1 = 0.4031	1365.48	15.94
293.15 K, x1 = 0.5048	1390.46	25.66
293.15 K, x1 = 0.6031	1409.62	38.98
293.15 K, x1 = 0.6973	1424.67	54.53
293.15 K, x1 = 0.7994	1438.25	74.49
293.15 K, x1 = 0.8711	1446.46	89.77
293.15 K, x1 = 1	1459.14	121.7
298.15 K, x1 = 0.0505	1179.18	2.26
298.15 K, x1 = 0.1001	1221.4	3.07
298.15 K, x1 = 0.1492	1255.08	4.21
298.15 K, x1 = 0.1998	1283.68	5.44
298.15 K, x1 = 0.3008	1327.83	8.61
298.15 K, x1 = 0.4031	1360.68	13.23
298.15 K, x1 = 0.5048	1385.67	20.56
298.15 K, x1 = 0.6031	1404.85	30.47
298.15 K, x1 = 0.6973	1419.93	42.29
298.15 K, x1 = 0.7994	1433.53	57.35
298.15 K, x1 = 0.8711	1441.74	69.78
298.15 K, x1 = 1	1454.44	92.8
303.15 K, x1 = 0.0505	1174.28	2.1
303.15 K, x1 = 0.1001	1216.49	2.82
303.15 K, x1 = 0.1492	1250.18	3.78
303.15 K, x1 = 0.1998	1278.79	4.88
303.15 K, x1 = 0.3008	1322.96	7.6
303.15 K, x1 = 0.4031	1355.84	11.41
303.15 K, x1 = 0.5048	1380.86	17.18
303.15 K, x1 = 0.6031	1400.07	24.6
303.15 K, x1 = 0.6973	1415.16	33.28
303.15 K, x1 = 0.7994	1428.78	44.5
303.15 K, x1 = 0.8711	1437	54.92
303.15 K, x1 = 1	1449.72	72.1
308.15 K, x1 = 0.0505	1169.38	1.96
308.15 K, x1 = 0.1001	1211.58	2.56
308.15 K, x1 = 0.1492	1245.28	3.45
308.15 K, x1 = 0.1998	1273.9	4.42
308.15 K, x1 = 0.3008	1318.1	6.83
308.15 K, x1 = 0.4031	1351.01	9.99
308.15 K, x1 = 0.5048	1376.06	14.57
308.15 K, x1 = 0.6031	1395.28	20.33
308.15 K, x1 = 0.6973	1410.4	27.25
308.15 K, x1 = 0.7994	1424.03	35.98
308.15 K, x1 = 0.8711	1432.26	44.23
308.15 K, x1 = 1	1445	57.76
313.15 K, x1 = 0.0505	1164.47	1.82
313.15 K, x1 = 0.1001	1206.67	2.36
313.15 K, x1 = 0.1492	1240.38	3.18
313.15 K, x1 = 0.1998	1269.01	4.04
313.15 K, x1 = 0.3008	1313.24	6.09
313.15 K, x1 = 0.4031	1346.18	8.71
313.15 K, x1 = 0.5048	1371.25	12.55
313.15 K, x1 = 0.6031	1390.5	17.39
313.15 K, x1 = 0.6973	1405.64	22.52
313.15 K, x1 = 0.7994	1419.29	30.01
313.15 K, x1 = 0.8711	1427.53	36.05
313.15 K, x1 = 1	1440.28	46.53
318.15 K, x1 = 0.0505	1159.57	1.68
318.15 K, x1 = 0.1001	1201.76	2.2
318.15 K, x1 = 0.1492	1235.48	2.97
318.15 K, x1 = 0.1998	1264.13	3.73
318.15 K, x1 = 0.3008	1308.38	5.5
318.15 K, x1 = 0.4031	1341.35	7.79
318.15 K, x1 = 0.5048	1366.46	10.94
318.15 K, x1 = 0.6031	1385.73	15.01
318.15 K, x1 = 0.6973	1400.88	19.07
318.15 K, x1 = 0.7994	1414.55	24.95
318.15 K, x1 = 0.8711	1422.81	29.91
318.15 K, x1 = 1	1435.57	38.4
323.15 K, x1 = 0.0505	1154.66	1.58
323.15 K, x1 = 0.1001	1196.85	2.04
323.15 K, x1 = 0.1492	1230.58	2.73
323.15 K, x1 = 0.1998	1259.24	3.38
323.15 K, x1 = 0.3008	1303.52	4.93
323.15 K, x1 = 0.4031	1336.53	6.9
323.15 K, x1 = 0.5048	1361.66	9.56
323.15 K, x1 = 0.6031	1380.96	12.76
323.15 K, x1 = 0.6973	1396.13	16.4
323.15 K, x1 = 0.7994	1409.83	20.66
323.15 K, x1 = 0.8711	1418.1	24.69
323.15 K, x1 = 1	1430.87	31.89

Reference: the NIST ThermoML archive (doi:10.1016/j.jct.2016.06.012)
